According to patent publication US20060052751A1, “Fast perfusion cell chamber” (priority 2004, published 2006):

System: GABA transporter isoform GAT4
Experiment: GABA concentration jump, two-electrode voltage clamp in Xenopus laevis oocyte in fast perfusion chamber
Type: cell-based
Details: oocyte expressing GAT4, N=6
Text: The usefulness of the Xenopus oocyte expression system for a variety of electrogenic membrane proteins has driven us to invent a novel rapid perfusion method which allows fast (≦20 ms) solution changes around intact, voltage-clamped Xenopus laevis oocytes (FIGS. 1-4). The present invention permits rapid solution changes to be made about voltage-clamped Xenopus laevis oocytes, while preserving the integrity of the cellular membrane. Defolliculated oocytes (intact vitelline membrane) and conventional two-electrode voltage clamp are used. For fast perfusion, the oocyte is placed in-line with the flow of buffer. The oocyte is supported primarily by an oocyte support base (6) equipped with oocyte support prongs (12), which prevent cellular movement. The current and voltage electrodes (4, 5) (for electrophysiological measurements) provide some support. Buffer flows from above the oocyte in a vertical direction (driven by gravity), at adjustable rates ranging from 1-50 ml/min. Healthy oocytes withstand maximal flow rates due to the chamber's support mechanisms.
In the absence of oocyte in the chamber, the fluid exchange rate at the recording electrodes is ≈3 ms at maximal buffer flow rates (FIG. 5), the fastest solution change rate ever reported for Xenopus laevis oocytes. The exchange rate with oocyte in place is more difficult to determine due to the highly invaginated surface of the cell (i.e., microvilli), but is estimated to be no more than ≈20 ms. The geometry of the oocyte, microvilli in the oocyte plasma membrane, as well as the oocyte vitelline membrane most likely contribute to this slowing effect. […] A number of features of the system have been examined with oocytes expressing the human γ-aminobutyric acid transporter protein and compared with results obtained from traditional methods (FIGS. 6 and 7). This system permits examination of ligand interaction with electrogenic membrane proteins, a proposition which has heretofore been unattainable. The system also allows for rapid determination of kinetic parameters for drugs of interest.
FIGS. 6A and 6B show a representative γ-aminobutyric acid (GABA) concentration jump in an oocyte expressing the GABA transporter isoform GAT4. The membrane potential (Vm) was held at −50 mV and the GABA concentration was 0.5 mM. […] This rapid transient induced by a concentration jump represents the fastest ever reported with the two-electrode voltage clamp for any membrane protein expressed in the Xenopus laevis oocyte expression system. […] The steady-state current represents steady-state Na^+/Cl^−/GABA cotransport into the cell. Only the steady-state current is observed in conventional two-electrode voltage clamp records (not shown). The rapid transient represents fast GABA-evoked electrogenic transitions. […] Referring to FIG. 6B, if GABA and Na^+ are simultaneously introduced, the rapid transient phase is absent and the evoked current follows a monoexponential behavior (τ=602±98 ms; N=6). […] Because these events are very fast events, these measurements would not have been possible without the present invention. Thus, our perfusion chamber allows the acquisition of novel information from electrogenic membrane transport proteins expressed in oocytes.

NCCCC(=O)O [GABA, γ-aminobutyric acid]
time constant (τ) of monoexponential evoked current (GABA and Na+ simultaneously introduced, rapid transient phase absent): 602 ± 98 ms | time constant of decay of rapid transient phase of GABA-evoked current (Vm -50 mV, GABA 0.5 mM): 15 ± 2 ms | time constant of mono-exponential decay of GABA-evoked current back to baseline upon rapid removal of GABA (Vm -50 mV, GABA 0.5 mM): 4.0 ± 0.6 s | time constant of mono-exponential decay of slow transient phase to steady-state (Vm -50 mV, GABA 0.5 mM): 1.3 ± 0.1 s | time-to-peak of rapid transient phase of GABA-evoked inward current (Vm -50 mV, GABA 0.5 mM): 20 ± 5 ms
